According to patent US8143408B2, “N-(8-heteroaryltetrahydronaphtalene-2yl) or N-(5-heteroarylchromane-3-yl) carboxamide derivatives for the treatment of pain” (AstraZeneca AB, priority 2007, dated 2012):

Molecular target: T1, Nav1.7 voltage-gated sodium channel (Homo sapiens, UniProt Q15858)
T1 construct: Gene(s) encoding the full-length protein of the voltage-gated sodium channel of interest are cloned and expressed; expressed in transfected cells
Test: Whole-cell voltage clamp electrophysiology assay
Assay type: cell-based
Conditions: cells stably expressing the voltage-gated sodium channel of interest
Method in brief: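 Cells expressing full-length channel, exposed to drug by integrated pipetting on automated patch-clamp platforms or by microperfusion in conventional whole-cell patch clamp. Channels activated by a voltage protocol depolarising from a defined holding potential; buffers per platform manufacturer.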

T1 sequence (Q15858 whole entry): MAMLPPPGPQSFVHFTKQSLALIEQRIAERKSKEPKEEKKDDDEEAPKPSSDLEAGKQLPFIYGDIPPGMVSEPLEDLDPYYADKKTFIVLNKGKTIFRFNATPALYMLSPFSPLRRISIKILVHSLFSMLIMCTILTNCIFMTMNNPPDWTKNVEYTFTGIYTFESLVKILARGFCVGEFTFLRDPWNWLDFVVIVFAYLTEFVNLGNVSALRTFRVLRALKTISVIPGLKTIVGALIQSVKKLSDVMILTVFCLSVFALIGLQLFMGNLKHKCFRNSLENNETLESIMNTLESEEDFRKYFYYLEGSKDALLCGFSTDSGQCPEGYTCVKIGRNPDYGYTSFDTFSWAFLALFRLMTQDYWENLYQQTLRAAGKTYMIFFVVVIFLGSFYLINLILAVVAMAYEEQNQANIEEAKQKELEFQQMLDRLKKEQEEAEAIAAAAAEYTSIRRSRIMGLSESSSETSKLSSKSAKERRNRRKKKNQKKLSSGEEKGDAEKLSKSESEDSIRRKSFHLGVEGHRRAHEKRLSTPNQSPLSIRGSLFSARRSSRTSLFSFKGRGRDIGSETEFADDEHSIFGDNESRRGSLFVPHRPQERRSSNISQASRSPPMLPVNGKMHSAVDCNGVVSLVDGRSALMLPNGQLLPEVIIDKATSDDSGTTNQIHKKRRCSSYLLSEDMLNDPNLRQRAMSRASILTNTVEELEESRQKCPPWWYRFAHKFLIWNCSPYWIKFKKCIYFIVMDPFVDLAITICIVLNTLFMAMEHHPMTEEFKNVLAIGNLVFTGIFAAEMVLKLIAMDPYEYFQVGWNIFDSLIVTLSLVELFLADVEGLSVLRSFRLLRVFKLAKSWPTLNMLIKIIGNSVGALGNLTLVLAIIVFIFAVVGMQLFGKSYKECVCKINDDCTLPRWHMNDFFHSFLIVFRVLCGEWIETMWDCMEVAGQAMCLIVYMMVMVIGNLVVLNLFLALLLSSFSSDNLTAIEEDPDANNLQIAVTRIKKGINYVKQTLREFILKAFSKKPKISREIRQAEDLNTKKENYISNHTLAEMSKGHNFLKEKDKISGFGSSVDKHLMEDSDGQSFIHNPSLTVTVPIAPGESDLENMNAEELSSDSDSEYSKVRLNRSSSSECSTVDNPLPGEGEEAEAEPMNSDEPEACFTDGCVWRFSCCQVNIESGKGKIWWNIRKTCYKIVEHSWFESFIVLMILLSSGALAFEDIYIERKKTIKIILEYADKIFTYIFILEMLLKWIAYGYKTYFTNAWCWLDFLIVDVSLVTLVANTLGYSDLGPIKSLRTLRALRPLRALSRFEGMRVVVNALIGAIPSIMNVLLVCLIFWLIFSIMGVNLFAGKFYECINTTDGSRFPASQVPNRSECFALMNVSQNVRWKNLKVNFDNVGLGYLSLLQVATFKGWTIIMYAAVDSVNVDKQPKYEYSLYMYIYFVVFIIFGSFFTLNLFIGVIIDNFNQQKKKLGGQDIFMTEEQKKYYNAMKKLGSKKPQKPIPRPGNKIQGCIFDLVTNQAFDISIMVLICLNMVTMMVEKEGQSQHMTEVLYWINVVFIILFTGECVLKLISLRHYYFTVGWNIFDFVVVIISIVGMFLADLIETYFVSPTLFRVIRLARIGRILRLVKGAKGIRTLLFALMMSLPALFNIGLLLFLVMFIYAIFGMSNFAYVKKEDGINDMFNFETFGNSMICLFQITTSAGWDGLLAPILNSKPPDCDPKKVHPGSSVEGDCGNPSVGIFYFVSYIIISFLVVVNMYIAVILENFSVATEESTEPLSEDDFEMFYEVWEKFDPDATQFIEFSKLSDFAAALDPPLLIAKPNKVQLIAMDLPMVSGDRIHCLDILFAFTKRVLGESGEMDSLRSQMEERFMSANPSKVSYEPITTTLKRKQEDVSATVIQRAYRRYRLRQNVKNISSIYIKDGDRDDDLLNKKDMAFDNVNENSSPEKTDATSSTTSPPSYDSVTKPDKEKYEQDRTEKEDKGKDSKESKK

Row | SMILES | IC50 [nM]
1 | CCc1ncc(-c2cccc3c2C[C@H](NC(=O)c2ccc(OCCOCC(F)(F)F)nc2)CO3)cn1 [Example 178, N-[(3S)-5-(2-ethylpyrimidin-5-yl)-3,4-dihydro-2H-chromen-3-yl]-6-[2-(2,2,2-trifluoroethoxy)ethoxy]nicotinamide] | 63.1
2 | COc1ncc(-c2cccc3c2C[C@H](NC(=O)c2ccc(C(=O)NCCC(F)(F)F)nc2)CO3)cc1F [Example 179, N^5-[(3S)-5-(5-fluoro-6-methoxypyridin-3-yl)-3,4-dihydro-2H-chromen-3-yl]-N^2-(3,3,3-trifluoropropyl)pyridine-2,5-dicarboxamide] | 200
3 | COc1ncc(-c2cccc3c2C[C@H](NC(=O)c2ccc(OCCOCC(F)(F)F)nc2)CO3)cc1F [Example 180, N-[(3S)-5-(5-fluoro-6-methoxypyridin-3-yl)-3,4-dihydro-2H-chromen-3-yl]-6-[2-(2,2,2-trifluoroethoxy)ethoxy]nicotinamide] | 316
4 | COc1ncc(-c2cccc3c2C[C@H](NC(=O)c2ccc(S(=O)(=O)C4CCCC4)nc2)CO3)cn1 [Example 181, 6-(cyclopentylsulfonyl)-N-[(3S)-5-(2-methoxypyrimidin-5-yl)-3,4-dihydro-2H-chromen-3-yl]nicotinamide] | 501
5 | Cc1cncc(-c2cccc3c2C[C@H](NC(=O)c2ccc(OCCOCC(F)(F)F)nc2)CO3)n1 [Example 182, N-[(3S)-5-(6-methylpyrazin-2-yl)-3,4-dihydro-2H-chromen-3-yl]-6-[2-(2,2,2-trifluoroethoxy)ethoxy]nicotinamide] | 63.1
6 | Cc1ncc(-c2cccc3c2C[C@H](NC(=O)c2ccc(C(=O)NCCC(F)(F)F)nc2)CO3)cn1 [Example 183, N^5-[(3S)-5-(2-methylpyrimidin-5-yl)-3,4-dihydro-2H-chromen-3-yl]-N^2-(3,3,3-trifluoropropyl)pyridine-2,5-dicarboxamide] | 316
7 | COc1ncc(-c2cccc3c2C[C@H](NC(=O)c2ccc(OCCOC(C)C)nc2)CO3)cn1 [Example 184, 6-(2-isopropoxyethoxy)-N-[(3S)-5-(2-methoxypyrimidin-5-yl)-3,4-dihydro-2H-chromen-3-yl]nicotinamide] | 501
8 | Cc1ncc(-c2cccc3c2C[C@H](NC(=O)c2ccc(OCCOC(C)C)nc2)CO3)cn1 [Example 185, 6-(2-isopropoxyethoxy)-N-[(3S)-5-(2-methylpyrimidin-5-yl)-3,4-dihydro-2H-chromen-3-yl]nicotinamide] | 316
9 | Cc1ncc(-c2cccc3c2C[C@H](NC(=O)c2ccc(C(=O)NCCCOC(C)C)nc2)CO3)cn1 [Example 186, N^2-(3-isopropoxypropyl)-N^5-[(3S)-5-(2-methylpyrimidin-5-yl)-3,4-dihydro-2H-chromen-3-yl]pyridine-2,5-dicarboxamide] | 2000
10 | COc1ncc(-c2cccc3c2C[C@H](NC(=O)c2ccc(C(=O)NCCCOC(C)C)nc2)CO3)cn1 [Example 187, N^2-(3-isopropoxypropyl)-N^5-[(3S)-5-(2-methoxypyrimidin-5-yl)-3,4-dihydro-2H-chromen-3-yl]pyridine-2,5-dicarboxamide] | 1580
11 | Cc1ncc(-c2cccc3c2C[C@H](NC(=O)c2ccc(C(=O)NCCCC(F)(F)F)nc2)CO3)cn1 [Example 188, N^5-[(3S)-5-(2-methylpyrimidin-5-yl)-3,4-dihydro-2H-chromen-3-yl]-N^2-(4,4,4-trifluorobutyl)pyridine-2,5-dicarboxamide] | 251
12 | Cc1ncc(-c2cccc3c2C[C@H](NC(=O)c2ccc(OCCOCC(F)(F)F)nc2)CO3)cn1 [Example 189, N-[(3S)-5-(2-methylpyrimidin-5-yl)-3,4-dihydro-2H-chromen-3-yl]-6-[2-(2,2,2-trifluoroethoxy)ethoxy]nicotinamide] | 79.4
13 | COc1ncc(-c2cccc3c2C[C@H](NC(=O)c2ccnc(OCCOCC(F)(F)F)c2)CC3)cn1 [Example 190, N-[(2R)-8-(2-methoxypyrimidin-5-yl)-1,2,3,4-tetrahydronaphthalen-2-yl]-2-[2-(2,2,2-trifluoroethoxy)ethoxy]isonicotinamide] | 7940
14 | COc1ncc(-c2cccc3c2C[C@H](NC(=O)c2ccc(C(=O)N(C)CC(F)(F)F)nc2)CO3)cn1 [Example 191, N^5-[(3S)-5-(2-methoxypyrimidin-5-yl)-3,4-dihydro-2H-chromen-3-yl]-N^2-methyl-N^2-(2,2,2-trifluoroethyl)pyridine-2,5-dicarboxamide] | 794
15 | COc1ncc(-c2cccc3c2C[C@H](NC(=O)c2ccc(C(=O)N(C)CC(F)(F)F)nc2)CO3)cc1F [Example 192, N^5-[(3S)-5-(5-fluoro-6-methoxypyridin-3-yl)-3,4-dihydro-2H-chromen-3-yl]-N^2-methyl-N^2-(2,2,2-trifluoroethyl)pyridine-2,5-dicarboxamide] | 631
16 | COc1ncc(-c2cccc3c2C[C@H](NC(=O)c2ccc(COCC(F)(F)F)nc2)CO3)cc1F [Example 193, N-[(3S)-5-(5-fluoro-6-methoxypyridin-3-yl)-3,4-dihydro-2H-chromen-3-yl]-6-[(2,2,2-trifluoroethoxy)methyl]nicotinamide] | 158

Row | SMILES | IC50 [nM]
17 | COc1ncc(-c2cccc3c2C[C@H](NC(=O)c2ccc(COCC(F)(F)F)nc2)CO3)cn1 [Example 194, N-[(3S)-5-(2-methoxypyrimidin-5-yl)-3,4-dihydro-2H-chromen-3-yl]-6-[(2,2,2-trifluoroethoxy)methyl]nicotinamide] | 200
18 | COc1ncc(-c2cccc3c2C[C@H](NC(=O)c2cnc(NCCC(F)(F)F)nc2)CO3)cn1 [Example 195, N-[(3S)-5-(2-methoxypyrimidin-5-yl)-3,4-dihydro-2H-chromen-3-yl]-2-[(3,3,3-trifluoropropyl)amino]pyrimidine-5-carboxamide] | 398
19 | CN(CC(F)(F)F)C(=O)c1ccc(C(=O)N[C@@H]2COc3cccc(-c4cnc(C5CC5)nc4)c3C2)cn1 [Example 196, N^5-[(3S)-5-(2-cyclopropylpyrimidin-5-yl)-3,4-dihydro-2H-chromen-3-yl]-N^2-methyl-N^2-(2,2,2-trifluoroethyl)pyridine-2,5-dicarboxamide] | 501
20 | O=C(N[C@@H]1COc2cccc(-c3cnc(C4CC4)nc3)c2C1)c1ccc(C(=O)NCCC(F)(F)F)nc1 [Example 197, N^5-[(3S)-5-(2-cyclopropylpyrimidin-5-yl)-3,4-dihydro-2H-chromen-3-yl]-N^2-(3,3,3-trifluoropropyl)pyridine-2,5-dicarboxamide] | 158
21 | CN(CCC(F)(F)F)C(=O)c1ccc(C(=O)N[C@@H]2COc3cccc(-c4cnc(C5CC5)nc4)c3C2)cn1 [Example 198, N^5-[(3S)-5-(2-cyclopropylpyrimidin-5-yl)-3,4-dihydro-2H-chromen-3-yl]-N^2-methyl-N^2-(3,3,3-trifluoropropyl)pyridine-2,5-dicarboxamide] | 501
22 | O=C(N[C@@H]1COc2cccc(-c3cnc(C4CC4)nc3)c2C1)c1ccn(CCC(F)(F)F)c(=O)c1 [Example 199, N-[(3S)-5-(2-cyclopropylpyrimidin-5-yl)-3,4-dihydro-2H-chromen-3-yl]-2-oxo-1-(3,3,3-trifluoropropyl)-1,2-dihydropyridine-4-carboxamide] | 501
23 | COc1ncc(-c2cccc3c2C[C@H](NC(=O)c2cnc(NCCC(F)(F)F)nc2)CO3)cc1F [Example 200, N-[(3S)-5-(5-fluoro-6-methoxypyridin-3-yl)-3,4-dihydro-2H-chromen-3-yl]-2-[(3,3,3-trifluoropropyl)amino]pyrimidine-5-carboxamide] | 316
24 | Cc1ncc(-c2cccc3c2C[C@H](NC(=O)c2cnc(NCCC(F)(F)F)nc2)CO3)cn1 [Example 201, N-[(3S)-5-(2-methylpyrimidin-5-yl)-3,4-dihydro-2H-chromen-3-yl]-2-[(3,3,3-trifluoropropyl)amino]pyrimidine-5-carboxamide] | 398
25 | Cc1cnc(-c2cccc3c2C[C@H](NC(=O)c2ccc(OCCOCC(F)(F)F)nc2)CO3)c(C)n1 [Example 202, N-[(3S)-5-(3,5-dimethylpyrazin-2-yl)-3,4-dihydro-2H-chromen-3-yl]-6-[2-(2,2,2-trifluoroethoxy)ethoxy]nicotinamide] | 794
26 | Cc1ncc(-c2cccc3c2C[C@H](NC(=O)c2ccc(COCC(F)(F)F)nc2)CO3)cn1 [Example 203, N-[(3S)-5-(2-methylpyrimidin-5-yl)-3,4-dihydro-2H-chromen-3-yl]-6-[(2,2,2-trifluoroethoxy)methyl]nicotinamide] | 200
27 | COc1ncc(-c2cccc3c2C[C@H](NC(=O)c2ccc(OC4CCOCC4)nc2)CO3)cc1C(=O)N(C)C [Example 204, 2-methoxy-N,N-dimethyl-5-[(3S)-3-({[6-(tetrahydro-2H-pyran-4-yloxy)pyridin-3-yl]carbonyl}amino)-3,4-dihydro-2H-chromen-5-yl]nicotinamide] | 7940
28 | CNC(=O)c1cc(-c2cccc3c2C[C@H](NC(=O)c2ccc(OC(C)C)nc2)CO3)cnc1OC [Example 205, 5-[(3S)-3-{[(6-isopropoxypyridin-3-yl)carbonyl]amino}-3,4-dihydro-2H-chromen-5-yl]-2-methoxy-N-methylnicotinamide] | 1260
29 | CNC(=O)c1cc(-c2cccc3c2C[C@H](NC(=O)c2ccc(OC4CCOCC4)nc2)CO3)cnc1OC [Example 206, 2-methoxy-N-methyl-5-[(3S)-3-({[6-(tetrahydro-2H-pyran-4-yloxy)pyridin-3-yl]carbonyl}amino)-3,4-dihydro-2H-chromen-5-yl]nicotinamide] | 3160
30 | COc1ncc(-c2cccc3c2C[C@H](NC(=O)c2ccc(OC(C)C)nc2)CO3)cc1C(=O)N(C)C [Example 207, 5-[(3S)-3-{[(6-isopropoxypyridin-3-yl)carbonyl]amino}-3,4-dihydro-2H-chromen-5-yl]-2-methoxy-N,N-dimethylnicotinamide] | 3980
31 | COc1ncc(-c2cccc3c2C[C@H](NC(=O)c2ccc(OCC(F)(F)F)nc2)CO3)cc1C(=O)N(C)C [Example 208, 2-methoxy-N,N-dimethyl-5-[(3S)-3-({[6-(2,2,2-trifluoroethoxy)pyridin-3-yl]carbonyl}amino)-3,4-dihydro-2H-chromen-5-yl]nicotinamide] | 1580
